Laboratory results: patent US7595300B2, “7-quinolyl ketolide antibacterial agents” (priority 2005, dated 2009)
Like-named read-outs stand apart in the source and are kept apart here.

Columns and labels:
[1] = test system: cryopreserved human hepatocytes; conditions: 4 h
Source text: In a second experiment, the hepatotoxicity of compound (III) was estimated using cryopreserved human hepatocytes pooled from four donors, measuring leakage of cellular lactate dehydrogenase (LDH). Each donor was selected for the study based on the activity of cytochrome P450 (phase I) and uridine diphosphoglucuronosyl transferases (phase II). Hepatocytes were initially prepared from human livers by collagenase perfusion and subsequently cryogenically frozen. Viable cryopreserved hepatocytes were enriched in accordance with BD Biosciences Discovery Labware SOP HP-10. Hepatocytes were rapidly thawed, pooled and incubated in Williams' E medium at a density of 2×10^6 cells/ml at 37° C. in an incubator for 30 min. After incubation, the viable cells were separated with 24% Percoll gradient and resuspended in WME at a density of 1×10^6 cells/ml. Initial viability was determined by trypan blue exclusion. Hepatocytes were incubated in a 24-well plate and each well contained 0.25×10^6 cells in 0.5 ml of WME medium. Three wells were used for determination of total LDH activity (cells+media) and the background activity (incubation media only) at the 0 time point. Briefly, a 100 μl aliquot of cell suspensions from these wells was immediately taken and rapidly centrifuged at 14,000 rpm for 15 seconds. The supernatants were transferred to microcentrifuge tubes and stored at ≦4° C. for measurement of LDH activity present in medium at the 0 time point. Another 100 μl aliquot of cell suspension from same wells was removed, mixed with 100 μl of 0.4% Triton and stored at ≦4° C. for measurement of total LDH activity.
Hepatocytes in other wells were incubated with test article at the concentrations of 200, 67, 22, 7.4, 2.5 and 0.82 μM. […] Hepatocytes were exposed to the test substance and the positive control for 4 hours. After incubation, 100 μl aliquots of cell suspensions were taken and rapidly centrifuged at 14,000 rpm for 15 seconds. The supernatants were transferred to microcentrifuge tubes and stored at ≦4° C. for measurement of LDH activity in incubation medium.
LDH activity in both total (medium+cells) and medium was determined by monitoring the enzymatic formation of NADH from NAD^+ in the presence of L-lactic acid. Briefly, post-centrifugation supernatants were diluted 1:40 with phosphate-buffered saline (pH 7.4). A 100 μl aliquot was mixed with 100 μl LDH reagent containing 7.5 mM NAD^+, 50 mM L-lactic acid in 250 mM Tris-HCl buffer (pH 8.9) in a 96-well plate. The increase in fluorescence due to the formation of NADH were kinetically monitored at Ext. 360 nm, Em. 460 nm, using a Fluorescence plate reader. The percent LDH leakage from cells was calculated by comparing incubation medium values with total LDH activity (see Equation below). The cell viability at each concentration of test articles was reported. % LDH leakage=(LDH activity in medium sample/total LDH activity)*100 The data are summarized in Table 17.

[2] = test system: anesthetized rats; assay: Cardiovascular safety, QT interval in anesthetized rats, i.v. bolus; format: in vivo, rat; conditions: rat
Method: Total doses of drug (0.47, 0.94, 1.88, 3.75, 7.5, and 15 mg/kg) or equivalent volumes of vehicle were administered incrementally as an i.v. bolus to groups of 6 anesthetized rats or guinea pigs at 0, 15, 30, 45, 60, and 75 minutes. Hemodynamic parameters including mean arterial pressure (MAP) and heart rate (HR), and ECG parameters (QT and PR intervals and QRS duration) were recorded. For the rat, injection of vehicle gave a 16% increase in QT interval over baseline. For the guinea pig, injection of vehicle gave a 3% increase in QT interval over baseline.

[3] = in vivo; conditions: male, beagle, dog, iv; for AUC: AUCtot
Method: The dosing route was an intravenous infusion jugular vein access). The infusion was accomplished using a CADD Prizm® ambulatory infusion pump attached to a jacket worn by the dog. The dose duration for the intravenous infusion was 30 min for all doses administered, except the last dose (30 mg/kg) where the infusion period was extended to 45 min to accommodate the larger dose volume required for this dose. The vehicle dose and diluent for the test article was 0.05-M sodium citrate in sterile water for injection.
There was one treatment group of four non-naïve dogs and the study was comprised of both pharmacokinetic and telemetry phases, as summarized in the dose administration table for compound (III) (Table 16) below. At least one week was given between dosings to allow clearance of the drug.
For the pharmacokinetic (PK) phase, the blood collection intervals were: predose, 10, 20, 30, (end dose time), 35, 45, 60, 90, 150, 270, 390, 510, 1440, and 2880 min relative to the start of the infusion. Whole blood (˜2 mL) was collected into Vacutainerss' (BD, Franklin, N.J.) containing sodium heparin as the anticoagulant agent. Blood samples were centrifuged at a speed of 3000 rpm, a temperature of 4° C. and a run time of 10 min. Plasma samples were transferred to amber glass vials and analyzed by LC/MS/MS to determine drug concentrations.

[4] = test system: Streptococcus pneumoniae ATCC 6303; assay: rat lower respiratory tract infection (lung pneumonia) model; format: in vivo; conditions: for Log CFU/g (avg, n = 8): rat lungs, 12 hours after the last dose
Method: The in vivo efficacy of compounds (II) and (III) were evaluated in a rat lower respiratory tract infection model. Groups of 8 rats were infected intratracheally with 0.5 mL containing 10^6 CFUs of Streptococcus pneumoniae ATCC 6303 in 5% hog gastric mucin. Compounds dissolved in ethanol were administered by oral gavage daily over 3 days starting 18 hours post-inoculation. Lungs were aseptically removed from survivors 12 hours after the last dose and examined for visible signs of infection, then homogenized in sterile PBS and plated for determination of CFUs by log plating on Columbia agar-nalidixic acid plates.

In the case of `CC1CC(N(C)C)C(O)C(O[C@@H]2[C@@H](C)C(=O)[C@](C)(F)C(=O)O[C@H](CCF)[C@@]3(C)OC(=O)N[C@@H]3[C@@H](C)C(=O)[C@H](C)C[C@@]2(C)OC/C=C/c2ccc3cccnc3c2)O1` (some centres unmarked) [Compound (III), 6-O-(1-(7-quinolyl)-3-propenyl)-11-amino-11-deoxy-3-(descladinosyl)-3-oxo-2,15-difluoroerythromycin A-11,12-cyclic carbamate], the “LDH leakage (%)” value ([1]; 0.82 μM) is reported as 6.1 ± 0.63%, the “Viability (%)” value ([1]; 0.82 μM) is reported as 94 ± 0.63% and the “LDH leakage (%)” value ([1]; 2.5 μM) is reported as 3.9 ± 2.8%. The “Viability (%)” value ([1]; 2.5 μM) was 96 ± 2.8%, the “LDH leakage (%)” value ([1]; 7.4 μM) was 10 ± 2.9% and the “Viability (%)” value ([1]; 7.4 μM) was 90 ± 2.9%. The “LDH leakage (%)” value ([1]; 22 μM) was 12 ± 0.74%, the “Viability (%)” value ([1]; 22 μM) was 88 ± 0.74% and the “LDH leakage (%)” value ([1]; 67 μM) was 6.7 ± 1.3%. The “Viability (%)” value ([1]; 67 μM) was 93 ± 1.3%, the “LDH leakage (%)” value ([1]; 200 μM) was 7.6 ± 4.2% and the “Viability (%)” value ([1]; 200 μM) was 92 ± 4.2%. The “effect on the QT interval in the rat” value [2] was “did not prolong the QT interval”, the Tmax ([3]; 11 mg/kg) was 0.46 ± 0.08 h and the half-life ([3]; 11 mg/kg) was 5.36 ± 0.4 h. It also gave an AUC ([3]; 11 mg/kg) of 33900 ± 3190 ng·h/mL, a Cmax ([3]; 11 mg/kg, Mean Cmax) of 6000 ± 1130 ng/mL and an AUCtot ([3]; 15 mg/kg) of 36047 ± 22104 ng·h/mL. For the same compound, the “mean Cmax” value ([3]; 15 mg/kg) was 6206 ± 3144 ng/mL, the AUC ([3]; 15 mg/kg) was 43900 ± 23100 ng·h/mL and the Cmax ([3]; 15 mg/kg, mean Cmax) was 7520 ± 3310 ng/mL. The “Log CFU/g (avg, n = 8)” value ([4]; 0.5 mg/kg oral gavage daily over 3 days) was 3.9 Log CFU/g, the “Log CFU/g (avg, n = 8)” value ([4]; 2.5 mg/kg oral gavage daily over 3 days) was 3.0 Log CFU/g and the “% survivors” value ([4]; rat, 0.5 mg/kg oral gavage daily over 3 days) was 100%. The “% survivors” value ([4]; rat, 2.5 mg/kg oral gavage daily over 3 days) was 100% and the “reducing the bacterial load in the rat lungs and increasing survival relative to control animals” value ([4]; rat, oral gavage daily over 3 days) was “efficacious”.
